The values that follow come from the NIST ThermoML archive (doi:10.1016/j.jct.2017.11.002).

± gives the expanded uncertainty stated by the source.

Data set [1] in a line: molar enthalpy of vaporization or sublimation. Particulars: 298.15 K; Crystal; Static calorimetry.
For data set [2] the following is noted: Crystal, Calculated from knudsen effusion weight loss.

On to `O=c1c2ccccc2[nH]c2ccccc12` [9(10H)-acridinone], for which the molar enthalpy in data set [1] worked out at 31.9 ± 1 kcal/mol.

For orientation: vapor or sublimation pressure means the pressure of vapour in equilibrium with the condensed phase. On to `Cn1c2ccccc2c(=O)c2ccccc21` [N-methylacridone], for which the molar enthalpy in data set [1] amounted to 29.6 ± 0.693 kcal/mol. The “vapor or sublimation pressure” value in data set [2] (394.16 K) is reported as 0.0001465 ± 6e-05 kPa; in data set [2] (396.13 K), 0.0001788 ± 6e-05 kPa; in data set [2] (398.11 K) it was 0.0002123 ± 6.1e-05 kPa; in data set [2] (400.15 K), 0.0002508 ± 6.1e-05 kPa; in data set [2] (402.1 K), 0.0003035 ± 6.1e-05 kPa; in data set [2] (404.1 K), 0.0003591 ± 6.1e-05 kPa. Besides, the “vapor or sublimation pressure” value is listed as 0.0004322 ± 6.2e-05 kPa in data set [2] (406.15 K); 0.000516 ± 6.3e-05 kPa in data set [2] (408.13 K); 0.0005963 ± 6.4e-05 kPa in data set [2] (410.11 K); 0.0007321 ± 6.5e-05 kPa in data set [2] (412.16 K); 0.0008616 ± 6.7e-05 kPa in data set [2] (414.11 K); 0.00101 ± 9.3e-05 kPa in data set [2] (416.12 K).
